Assay type in all cases: biochemical
One experiment concerns the target T1, MMP-1 (Homo sapiens, UniProt P03956).
T1 construct: purchased R&D Systems 901-MP
T1 sequence (P03956 100-469): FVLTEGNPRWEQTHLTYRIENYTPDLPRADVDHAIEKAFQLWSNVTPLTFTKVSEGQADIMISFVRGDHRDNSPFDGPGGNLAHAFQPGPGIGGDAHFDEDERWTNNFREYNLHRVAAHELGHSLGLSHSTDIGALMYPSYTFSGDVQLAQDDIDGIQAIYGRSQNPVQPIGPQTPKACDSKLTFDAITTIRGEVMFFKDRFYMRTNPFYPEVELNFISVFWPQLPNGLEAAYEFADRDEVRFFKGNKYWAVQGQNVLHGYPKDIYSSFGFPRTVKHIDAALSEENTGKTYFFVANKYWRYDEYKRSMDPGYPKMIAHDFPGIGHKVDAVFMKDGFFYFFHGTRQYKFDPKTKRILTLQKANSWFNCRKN
As to the kind of experiment: In vitro MMP-1 inhibition test. The text has this: (§1) The MMP-mediated amidolytic cleavage of a suitable peptide substrate leads to an increase in fluorescent light here too. The signal intensity of the fluorescent light is directly proportional to the enzyme activity. The active concentration of a test compound at which half the enzyme is inhibited (50% signal intensity of the fluorescent light) is reported as the IC50 value.
(§2) Recombinant MMP-1 (from R&D Systems, 901-MP) is chemically activated in accordance with the manufacturer's instructions using APMA. 1 μl of the test compound to be analysed (as a solution in DMSO, suitable concentrations, for example, 1 nM to 30 μM) is pipetted into 24 μl of activated enzyme (final concentration, for example, 2 nM) in reaction buffer (50 mM Tris/HCl pH 7.5, 10 mM CaCl2, 150 mM NaCl, 0.05% Brij®-35) in a white 384-hole microtiter plate (MTP). The enzymatic reaction is started by adding the intramolecularly quenched Mca-Pro-Leu-Gly-Leu-Dpa(Dnp)-Ala-Arg-NH2 substrate (final concentration, for example, 10 μM; R&D Systems, ES-001), so as to result in a total test volume of 50 μl. The course of the MMP-1 reaction is measured by measuring the fluorescence intensity (excitation 320 nm, emission 410 nm) over a suitable period of time (for example over 120 min at a temperature of 32° C.).

For a further experiment, the target named is T2, MMP-13 (Homo sapiens, UniProt P45452).
T2 construct: purchased R&D Systems 511-MP
The experiment can be described thus: In vitro MMP-13 inhibition test.
From the text: as §1
as §2, with “Recombinant MMP-13” for “Recombinant MMP-1”, “Systems, 511-MP)” for “Systems, 901-MP)”, “example, 0.1” for “example, 2”, “50” for “50 μl.”, “the MMP-13” for “the MMP-1”

The target of the next experiment is T3, MMP-14 (Homo sapiens, UniProt P50281).
T3 construct: purchased R&D Systems 918-MP
As to the kind of experiment: In vitro MMP-14 inhibition test.
From the text: as §1
Recombinant MMP-14 (from R&D Systems, 918-MP) is enzymatically activated in accordance with the manufacturer's instructions using recombinant furin (from R&D Systems, 1503-SE). 1 μl of the test compound to be analysed (as a solution in DMSO, suitable concentrations e.g. 1 nM to 30 μM) is pipetted into 24 μl of activated enzyme (final concentration e.g. 0.5 nM) in reaction buffer (50 mM Tris/HCl pH 7.5, 10 mM CaCl2, 150 mM NaCl, 0.05% Brij®-35) in a white 384-hole microtiter plate (MTP). The enzymatic reaction is started by adding the intramolecularly quenched Mca-Lys-Pro-Leu-Gly-Leu-Dpa(Dnp)-Ala-Arg-NH2 substrate (final concentration, for example, 5 μM; R&D Systems, ES-010), so as to result in a total test volume of 50 The course of the MMP-14 reaction is measured by measuring the fluorescence intensity (excitation 320 nm, emission 410 nm) over a suitable period of time (for example over 120 min at a temperature of 32° C.).

The next experiment deals with T4, mouse MMP-2 (Mus musculus, UniProt P33434).
T4 construct: purchased R&D Systems 924-MP
The experiment can be described thus: In vitro mouse MMP-2 inhibition test.
From the text: as §1
as §2, with “Recombinant mouse MMP-2” for “Recombinant MMP-1”, “Systems, 924-MP)” for “Systems, 901-MP)”, “example, 0.1” for “example, 2”, “50” for “50 μl.”, “the MMP-2” for “the MMP-1”

T4 sequence (P33434 110-662): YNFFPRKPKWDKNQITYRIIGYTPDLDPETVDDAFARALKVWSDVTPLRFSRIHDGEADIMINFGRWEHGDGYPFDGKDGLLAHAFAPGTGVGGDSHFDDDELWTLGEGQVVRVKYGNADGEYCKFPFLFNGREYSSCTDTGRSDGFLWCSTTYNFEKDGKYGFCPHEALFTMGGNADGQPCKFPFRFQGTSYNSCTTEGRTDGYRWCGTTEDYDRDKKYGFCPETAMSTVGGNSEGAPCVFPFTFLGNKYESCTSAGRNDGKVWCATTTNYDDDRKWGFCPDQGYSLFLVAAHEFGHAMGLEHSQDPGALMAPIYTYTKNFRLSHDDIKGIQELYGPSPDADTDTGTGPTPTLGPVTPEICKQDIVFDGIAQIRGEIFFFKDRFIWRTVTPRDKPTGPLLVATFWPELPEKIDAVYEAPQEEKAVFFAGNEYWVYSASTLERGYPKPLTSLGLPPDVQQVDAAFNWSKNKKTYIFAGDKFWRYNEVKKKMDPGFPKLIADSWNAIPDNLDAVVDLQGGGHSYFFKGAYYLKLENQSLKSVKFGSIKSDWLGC

As usually defined, the IC50 is the concentration that gives 50% inhibition. Regarding `O=C(O)[C@H]1[C@H](Cn2nnc3ccc(C(F)(F)F)cc3c2=O)CC[C@@H]1C(=O)c1ccc(OCc2ccccc2)cc1` (racemic) [Example 11, (+/−)-(1RS,2RS,5SR)-2-[4-(Benzyloxy)benzoyl]-5-{[4-oxo-6-(trifluoromethyl)-1,2,3-benzotriazin-3(4H)-yl]methyl}cyclopentanecarboxylic acid], the 50% inhibitory concentration (IC50) at MMP-1 turned out to be 3800 nM; against MMP-13 it was 88 nM; on MMP-14, 150 nM; at mouse MMP-2, 250 nM.
Regarding `Cc1ccc2nnn(C[C@H]3CC[C@@H](C(=O)c4ccc(OCc5cccc(Cl)c5)cc4)[C@@H]3C(=O)O)c(=O)c2c1` (single isomer, unassigned) [Example 104, (+)-(1RS,2RS,5SR)-2-{4-[(3-Chlorobenzyl)oxy]benzoyl}-5-[(6-methyl-4-oxo-1,2,3-benzotriazin-3(4H)-yl)methyl]cyclopentanecarboxylic acid], the IC50 against MMP-1 amounted to 3900 nM; against MMP-13, 200 nM; against MMP-14, 230 nM; against mouse MMP-2, 290 nM.
Regarding “(+)-(1RS,2RS,5SR)-2-{4-[(3,4-Dichlorobenzyl)oxy]benzoyl}-5-{[4-oxo-6-(trifluoromethyl)-1,2,3-benzotriazin-3(4H)-yl]methyl}cyclopentanecarboxylic acid [Example 28]”, the IC50 was 17000 nM on MMP-1, 620 nM against MMP-13, 1900 nM against MMP-14 and 1000 nM on mouse MMP-2.
Taken in the same sequence, the figures for `O=C(O)[C@H]1[C@H](Cn2nnc3ccccc3c2=O)CC[C@@H]1C(=O)c1ccc(OCc2ccc(Cl)c(Cl)c2)cc1` (racemic) [Example 3, (+/−)-(1RS,2RS,5SR)-2-{4-[(3,4-Dichlorobenzyl)oxy]benzoyl}-5-[(4-oxo-1,2,3-benzotriazin-3(4H)-yl)methyl]cyclopentanecarboxylic acid] were 16000 nM, 340 nM, 700 nM and 290 nM.
Consider `O=C(O)[C@H]1[C@H](Cn2nnc3ccc(C(F)(F)F)cc3c2=O)CC[C@@H]1C(=O)c1ccc(OCCCC2CCCCC2)cc1` (racemic) [Example 56, (+/−)-(1RS,2RS,5SR)-2-{4-(3-Cyclohexylpropoxy)benzoyl}-5-{[4-oxo-6-(trifluoromethyl)-1,2,3-benzotriazin-3(4H)-yl]methyl}cyclopentanecarboxylic acid], for which the IC50 was over 40000 nM against MMP-1, 2400 nM on MMP-13, over 40000 nM on MMP-14 and 5000 nM against mouse MMP-2.
For `O=C(O)[C@H]1[C@H](Cn2nnc3ccccc3c2=O)CC[C@@H]1C(=O)c1ccc(OCC2CCCC2)cc1` (racemic) [Example 4, (+/−)-(1RS,2RS,5SR)-2-[4-(Cyclopentylmethoxy)benzoyl]-5-[(4-oxo-1,2,3-benzotriazin-3(4H)-yl)methyl]cyclopentanecarboxylic acid], the IC50 on MMP-1 was 28000 nM; against MMP-13 it was 58 nM; at MMP-14, 33 nM; against mouse MMP-2, 100 nM.
With `O=C(O)[C@H]1[C@H](Cn2nnc3ccc(C(F)(F)F)cc3c2=O)CC[C@@H]1C(=O)c1ccc(SCc2ccc(Cl)c(Cl)c2)cc1` (racemic) [Example 79, (+/−)-(1RS,2RS,5SR)-2-{4-[(3,4-Dichlorobenzyl)sulphanyl]benzoyl}-5-{[4-oxo-6-(trifluoromethyl)-1,2,3-benzotriazin-3(4H)-yl]methyl}cyclopentanecarboxylic acid], the IC50 on MMP-1 was 15000 nM; against MMP-13 it was 2700 nM; on MMP-14 it was 8700 nM; against mouse MMP-2 it was 5900 nM.
Consider `O=C(O)[C@@H]1[C@@H](Cn2nnc3ccc(C(F)(F)F)cc3c2=O)CC[C@H]1C(=O)c1ccc(SCc2ccccc2)cc1` (single isomer, unassigned) [Example 75, (+)-(1RS,2RS,5SR)-2-[4-(Benzylsulphanyl)benzoyl]-5-{[4-oxo-6-(trifluoromethyl)-1,2,3-benzotriazin-3(4H)-yl]methyl}cyclopentanecarboxylic acid], for which the IC50 against MMP-1 is 21000 nM; on MMP-13 it was 2300 nM; on MMP-14, 1900 nM; against mouse MMP-2, 4200 nM.
On to `Cc1ccc2nnn(C[C@H]3CC[C@@H](C(=O)c4ccc(OCC5CCCCC5)cc4)[C@@H]3C(=O)O)c(=O)c2c1` (single isomer, unassigned) [Example 117, (+)-(1RS,2RS,5SR)-2-[4-(Cyclohexylmethoxy)benzoyl]-5-[(6-methyl-4-oxo-1,2,3-benzotriazin-3(4H)-yl)methyl]cyclopentanecarboxylic acid], for which the IC50 at MMP-1 came out at 4400 nM; on MMP-13 it was 74 nM; at MMP-14 it was 88 nM; on mouse MMP-2, 130 nM.
For the compound “(+)-(1RS,2SR,5RS)-2-{[4-Oxo-6-(trifluoromethyl)-1,2,3-benzotriazin-3(4H)-yl]methyl}-5-{4-[(2-phenylethy)sulphanyl]benzoyl}cyclopentanecarboxylic acid [Example 83]”, the IC50 is over 40000 nM against MMP-1, 2800 nM at MMP-13, 3900 nM against MMP-14 and 8100 nM at mouse MMP-2.
As for `O=C(O)[C@H]1[C@H](Cn2nnc3ccc(C(F)(F)F)cc3c2=O)CC[C@@H]1C(=O)c1ccc(OCc2ccc(F)cc2)cc1` (racemic) [Example 12, (+/−)-(1RS,2RS,5SR)-2-{4-[(4-Fluorobenzyl)oxy]benzoyl}-5-{[4-oxo-6-(trifluoromethyl)-1,2,3-benzotriazin-3(4H)-yl]methyl}cyclopentanecarboxylic acid], the IC50 against MMP-1 was found to be 2500 nM; at MMP-13, 39 nM; on MMP-14, 78 nM.
In the case of `CCCCOc1ccc(C(=O)[C@@H]2CC[C@H](Cn3nnc4ccc(C(F)(F)F)cc4c3=O)[C@H]2C(=O)O)cc1` (single isomer, unassigned) [Example 67, (+)-(1RS,2RS,5SR)-2-(4-Butoxybenzoyl)-5-{[4-oxo-6-(trifluoromethyl)-1,2,3-benzotriazin-3(4H)-yl]methyl}cyclopentanecarboxylic acid], the IC50 against MMP-1 came out at 5200 nM; at MMP-13 it was 270 nM; at MMP-14 it was 96 nM.
